PubChem BioAssay AID2060621 (Molecular Pharmacology Branch, DTP, NCI, 2025)
Values joined by “and” are separate entries in the source; they are usually repeats but may differ in a detail not shown here. Equal entries are not always repeated.

Test system: 324938-238-R-J1-PDC complex spheroids viability
Experiment: Anticancer human tumor 324938-238-R-J1-PDC patient-derived bladder carcinoma cell line growth inhibition [CLK]
Details: for viability, T/C: stronger effect = lower value
Procedure, shortened: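 Multi-cell-type spheroids combined patient-derived tumor cells with HUVEC endothelial cells and human mesenchymal stem cells. Paired agents were dosed in half-log steps down from about clinical Cmax, or from 10 microM where Cmax was unknown.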

[1] = curve of first compound, second compound 0.0316 µM
[2] = curve of first compound, second compound 0.1 µM
[3] = curve of first compound, second compound 0.316 µM
[4] = curve of first compound, second compound 1 µM
[5] = curve of first compound, second compound 3.16 µM
[6] = curve of first compound, second compound 10 µM
[7] = second compound 0.0316 µM, first compound 0.0316 µM
[8] = second compound 0.0316 µM, first compound 0.1 µM
[9] = second compound 0.0316 µM, first compound 0.316 µM
[10] = second compound 0.0316 µM, first compound 1 µM
[11] = second compound 0.0316 µM, first compound 3.16 µM
[12] = second compound 0.0316 µM, first compound 10 µM
[13] = second compound 0.1 µM, first compound 0.0316 µM
[14] = second compound 0.1 µM, first compound 0.1 µM
[15] = second compound 0.1 µM, first compound 0.316 µM
[16] = second compound 0.1 µM, first compound 1 µM
[17] = second compound 0.1 µM, first compound 3.16 µM
[18] = second compound 0.1 µM, first compound 10 µM
[19] = second compound 0.316 µM, first compound 0.0316 µM
[20] = second compound 0.316 µM, first compound 0.1 µM
[21] = second compound 0.316 µM, first compound 0.316 µM
[22] = second compound 0.316 µM, first compound 1 µM
[23] = second compound 0.316 µM, first compound 3.16 µM
[24] = second compound 0.316 µM, first compound 10 µM
[25] = second compound 1 µM, first compound 0.0316 µM
[26] = second compound 1 µM, first compound 0.1 µM
[27] = second compound 1 µM, first compound 0.316 µM
[28] = second compound 1 µM, first compound 1 µM
[29] = second compound 1 µM, first compound 3.16 µM
[30] = second compound 1 µM, first compound 10 µM
[31] = second compound 3.16 µM, first compound 0.0316 µM
[32] = second compound 3.16 µM, first compound 0.1 µM
[33] = second compound 3.16 µM, first compound 0.316 µM
[34] = second compound 3.16 µM, first compound 1 µM
[35] = second compound 3.16 µM, first compound 3.16 µM
[36] = second compound 3.16 µM, first compound 10 µM
[37] = second compound 10 µM, first compound 0.0316 µM
[38] = second compound 10 µM, first compound 0.1 µM
[39] = second compound 10 µM, first compound 0.316 µM
[40] = second compound 10 µM, first compound 1 µM
[41] = second compound 10 µM, first compound 3.16 µM
[42] = second compound 10 µM, first compound 10 µM
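Note: viability read after seven days of drug exposure.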
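Throughout, for viability, T/C: 100% = DMSO vehicle control wells.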

**Q.** How did the IC50 [1] turn out when `CC(=O)O[C@H]1C(=O)[C@@]2(C)[C@H]([C@H](OC(=O)c3ccccc3)[C@]3(O)C[C@H](OC(=O)[C@H](O)[C@@H](NC(=O)c4ccccc4)c4ccccc4)C(C)=C1C3(C)C)[C@]1(OC(C)=O)CO[C@@H]1C[C@@H]2O` + CN1CCN(c2cc(C(=O)Nc3cc4cc(-c5cnn(C)c5)ccc4cn3)ccn2)CC1 was run?
**A.** < 31.6 nM

**Q.** And the IC50 [2]?
**A.** < 31.6 nM

**Q.** What about the IC50 [3] of the same compound?
**A.** < 31.6 nM

**Q.** And the IC50 [4]?
**A.** < 31.6 nM

**Q.** What about the IC50 [5] of the same compound?
**A.** < 31.6 nM

**Q.** And the IC50 [6]?
**A.** < 31.6 nM

**Q.** What about the viability, T/C [7] of the same compound?
**A.** 14.2%

**Q.** What about the viability, T/C [8] of the same compound?
**A.** 13.8%

**Q.** What about the viability, T/C [9] of the same compound?
**A.** 14.7%

**Q.** And the viability, T/C [10]?
**A.** 12.9%

**Q.** What about the viability, T/C [11] of the same compound?
**A.** 14.6%

**Q.** What about the viability, T/C [12] of the same compound?
**A.** 15.7%

**Q.** And the viability, T/C [13]?
**A.** 13.7%

**Q.** And the viability, T/C [14]?
**A.** 14%

**Q.** And the viability, T/C [15]?
**A.** 13.6%

**Q.** And the viability, T/C [16]?
**A.** 13.8%

**Q.** And the viability, T/C [17]?
**A.** 14.5%

**Q.** And the viability, T/C [18]?
**A.** 16.9%

**Q.** And the viability, T/C [19]?
**A.** 16.9%

**Q.** And the viability, T/C [20]?
**A.** 15.6%

**Q.** What about the viability, T/C [21] of the same compound?
**A.** 15.2%

**Q.** What about the viability, T/C [22] of the same compound?
**A.** 16.9%

**Q.** What about the viability, T/C [23] of the same compound?
**A.** 15%

**Q.** And the viability, T/C [24]?
**A.** 18%

**Q.** And the viability, T/C [25]?
**A.** 0.92%

**Q.** What about the viability, T/C [26] of the same compound?
**A.** 0.96%

**Q.** What about the viability, T/C [27] of the same compound?
**A.** 0.69%

**Q.** What about the viability, T/C [28] of the same compound?
**A.** 1.04%

**Q.** And the viability, T/C [29]?
**A.** 0.73%

**Q.** What about the viability, T/C [30] of the same compound?
**A.** 0.69%

**Q.** And the viability, T/C [31]?
**A.** 0.17%

**Q.** What about the viability, T/C [32] of the same compound?
**A.** 0.22%

**Q.** What about the viability, T/C [33] of the same compound?
**A.** 0.22%

**Q.** And the viability, T/C [34]?
**A.** 0.13%

**Q.** And the viability, T/C [35]?
**A.** 0.21%

**Q.** What about the viability, T/C [36] of the same compound?
**A.** 0.18%

**Q.** And the viability, T/C [37]?
**A.** 0.13%

**Q.** And the viability, T/C [38]?
**A.** 0.16%

**Q.** And the viability, T/C [39]?
**A.** 0.51%

**Q.** What about the viability, T/C [40] of the same compound?
**A.** 0.16%

**Q.** And the viability, T/C [41]?
**A.** 0.28%

**Q.** And the viability, T/C [42]?
**A.** 0.28%

**Q.** `C=C(F)C(=O)N1CCN(c2nc(OCC3CCCN3C)nc3c2CCN(c2cccc4cccc(Cl)c24)C3)CC1CC#N` (stereo unspecified) was tested. Which viability, T/C (compound 0.0316 µM) did it give?
**A.** 79.2% and 88%

**Q.** And the viability, T/C (compound 0.1 µM)?
**A.** 88.8% and 85.7%

**Q.** And the viability, T/C (compound 0.316 µM)?
**A.** 89.3% and 88%

**Q.** And the viability, T/C (compound 1 µM)?
**A.** 85.3% and 92.6%

**Q.** What about the viability, T/C (compound 3.16 µM) of the same compound?
**A.** 35.5% and 55.8%

**Q.** And the viability, T/C (compound 10 µM)?
**A.** 0.27% and 1.96%

**Q.** And the IC50 (curve of compound)?
**A.** 2260 nM and 3580 nM

**Q.** How did the IC50 [1] turn out when `C#Cc1c(F)ccc2cc(O)cc(-c3ncc4c(N5CC6CCC(C5)N6)nc(OCC56CCCN5CC(F)C6)nc4c3F)c12` (stereo unspecified) + CN1CCN(c2cc(C(=O)Nc3cc4cc(-c5cnn(C)c5)ccc4cn3)ccn2)CC1 was run?
**A.** 5050 nM

**Q.** And the IC50 [2]?
**A.** 1240 nM

**Q.** And the IC50 [3]?
**A.** < 31.6 nM

**Q.** What about the IC50 [4] of the same compound?
**A.** < 31.6 nM

**Q.** And the IC50 [5]?
**A.** < 31.6 nM

**Q.** What about the IC50 [6] of the same compound?
**A.** < 31.6 nM

**Q.** What about the viability, T/C [7] of the same compound?
**A.** 77.5%

**Q.** What about the viability, T/C [8] of the same compound?
**A.** 86.1%

**Q.** What about the viability, T/C [9] of the same compound?
**A.** 74.5%

**Q.** What about the viability, T/C [10] of the same compound?
**A.** 69.9%

**Q.** And the viability, T/C [11]?
**A.** 56%

**Q.** And the viability, T/C [12]?
**A.** 41.4%

**Q.** And the viability, T/C [13]?
**A.** 57.3%

**Q.** And the viability, T/C [14]?
**A.** 51.8%

**Q.** And the viability, T/C [15]?
**A.** 52.7%

**Q.** What about the viability, T/C [16] of the same compound?
**A.** 52.8%

**Q.** And the viability, T/C [17]?
**A.** 38%

**Q.** What about the viability, T/C [18] of the same compound?
**A.** 32.7%

**Q.** And the viability, T/C [19]?
**A.** 28.2%

**Q.** What about the viability, T/C [20] of the same compound?
**A.** 28%

**Q.** What about the viability, T/C [21] of the same compound?
**A.** 22.2%

**Q.** What about the viability, T/C [22] of the same compound?
**A.** 23.9%

**Q.** And the viability, T/C [23]?
**A.** 21.5%

**Q.** And the viability, T/C [24]?
**A.** 19.4%

**Q.** What about the viability, T/C [25] of the same compound?
**A.** 2%

**Q.** What about the viability, T/C [26] of the same compound?
**A.** 2.51%

**Q.** What about the viability, T/C [27] of the same compound?
**A.** 2.35%

**Q.** And the viability, T/C [28]?
**A.** 2.31%

**Q.** And the viability, T/C [29]?
**A.** 1.37%

**Q.** And the viability, T/C [30]?
**A.** 0.75%

**Q.** And the viability, T/C [31]?
**A.** 0.13%

**Q.** What about the viability, T/C [32] of the same compound?
**A.** 0.3%

**Q.** And the viability, T/C [33]?
**A.** 0.16%

**Q.** And the viability, T/C [34]?
**A.** 0.11%

**Q.** What about the viability, T/C [35] of the same compound?
**A.** 0.15%

**Q.** What about the viability, T/C [36] of the same compound?
**A.** 0.14%

**Q.** What about the viability, T/C [37] of the same compound?
**A.** 0.11%

**Q.** What about the viability, T/C [38] of the same compound?
**A.** 0.16%

**Q.** What about the viability, T/C [39] of the same compound?
**A.** 1.1%

**Q.** And the viability, T/C [40]?
**A.** 0.14%

**Q.** What about the viability, T/C [41] of the same compound?
**A.** 0.15%

**Q.** And the viability, T/C [42]?
**A.** 0.24%
